Test systems include HT29 colon; RXF 393 renal; NCI/ADR-RES ovarian; T-47D breast; OVCAR-8 ovarian; SR leukemia; 786-0 renal; PC-3 prostate; TK-10 renal; SF-539 CNS.
Common to all, as to experiment: inhibition of tumour cell growth, NCI panel, 48 h

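Growth conditions: 96-well plates. Treatment: test compound, 48 hours, 5 concentrations. Analysis: linear interpolation between bracketing concentrations; unreached endpoints set to highest concentration. The concentration for full growth arrest is given as TGI.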

In the case of `Cc1c2cccc-2ccc2c1[nH]c1ccccc12`, the TGI is 14.4 µM with HT29 colon; 9.42 µM in the assay on RXF 393 renal; above 27.3 µM in the assay with NCI/ADR-RES ovarian; 8.45 µM in the assay with T-47D breast; 7.07 µM with OVCAR-8 ovarian; 18.9 µM in the assay on SR leukemia. Besides, the TGI in the assay on 786-0 renal came out at 10.1 µM; in the assay with PC-3 prostate, 3.45 µM; in the assay with TK-10 renal, 4.92 µM; with SF-539 CNS it was 3.42 µM.

In the case of `O=[N+]([O-])/C=C/c1cn(CCCCCn2cc(/C=C/[N+](=O)[O-])c3ccccc32)c2ccccc12`, the TGI was 7.82 µM with HT29 colon; 1.35 µM with RXF 393 renal; 35.4 µM in the assay with NCI/ADR-RES ovarian; above 100 µM in the assay with T-47D breast; 16.5 µM with OVCAR-8 ovarian; above 100 µM in the assay with SR leukemia. Moreover, the TGI in the assay on 786-0 renal was 1.35 µM; in the assay with PC-3 prostate it was 15 µM; in the assay on TK-10 renal, 5.37 µM; in the assay on SF-539 CNS, 5.28 µM.

On to `CC1=C2C(=O)c3ccccc3C(=O)[C@H]2C[C@@H](N2CCCCCC2=O)O1`, for which the TGI is 71.2 µM in the assay with HT29 colon; 55.9 µM with RXF 393 renal; 49.8 µM in the assay on NCI/ADR-RES ovarian; 42.3 µM in the assay on T-47D breast; 40.3 µM with OVCAR-8 ovarian; 25.7 µM with SR leukemia. The TGI in the assay with 786-0 renal turned out to be 32.7 µM; in the assay with PC-3 prostate, 44.4 µM; with TK-10 renal, 37.7 µM; with SF-539 CNS, 33.7 µM.

As for `CNc1ccc(Cl)cc1S(=O)(=O)c1ccccc1[N+](=O)[O-]`, the TGI in the assay on HT29 colon, with RXF 393 renal, with NCI/ADR-RES ovarian, in the assay on T-47D breast, in the assay on OVCAR-8 ovarian and in the assay on SR leukemia was above 100 µM throughout. In addition, the TGI with 786-0 renal, with PC-3 prostate, with TK-10 renal and in the assay on SF-539 CNS was above 100 µM each time.

Turning to `N#CCCC1(CCC#N)CCCCCCC(CCC#N)(CCC#N)C(O)C1O` (stereo not given), the TGI in the assay on HT29 colon, in the assay on RXF 393 renal, in the assay on NCI/ADR-RES ovarian, in the assay with T-47D breast, with OVCAR-8 ovarian and in the assay with SR leukemia was above 100 µM throughout. Besides, the TGI with 786-0 renal, in the assay on PC-3 prostate, in the assay on TK-10 renal and in the assay with SF-539 CNS was above 100 µM in each case.

Consider `CC(C)(C)OC(=O)N1CCc2c(n(C/C=C/c3ccccc3)[nH]c2=O)C1`, for which the TGI in the assay on HT29 colon, in the assay on RXF 393 renal, in the assay on NCI/ADR-RES ovarian, in the assay with T-47D breast, in the assay on OVCAR-8 ovarian and with SR leukemia was above 100 µM in each case. Moreover, the TGI with 786-0 renal, in the assay with PC-3 prostate, in the assay on TK-10 renal and in the assay on SF-539 CNS was above 100 µM throughout.

For `O=S(=O)(O)C1CCC(O)C2[N-]CCCC21.O=S(=O)(O)C1CCC(O)C2[N-]CCCC21.[Zn+2]` (stereo not given), the TGI with HT29 colon, in the assay with RXF 393 renal, in the assay on NCI/ADR-RES ovarian, in the assay with T-47D breast, in the assay with OVCAR-8 ovarian and in the assay with SR leukemia was above 100 µM in each case. The TGI with 786-0 renal, in the assay on PC-3 prostate, in the assay with TK-10 renal and in the assay on SF-539 CNS was above 100 µM each time.

In the case of `NC(=O)C1=CC2C3C=CC2(O)C(=O)OC3O1` (stereo not given), the TGI in the assay with HT29 colon was 9.83 µM; with RXF 393 renal, 8.23 µM; in the assay with NCI/ADR-RES ovarian, 7.22 µM; in the assay with T-47D breast, 15.1 µM; in the assay on OVCAR-8 ovarian, 6.66 µM; in the assay on SR leukemia, 5.48 µM. Also, the TGI came to 16 µM with 786-0 renal, 37.7 µM with PC-3 prostate, 16.7 µM in the assay on TK-10 renal and 15.7 µM in the assay with SF-539 CNS.

For `CCCCCCOP(=O)(OCCCCCC)OC(C(=O)OC)C(F)(F)F` (stereo not given), the TGI with HT29 colon, with NCI/ADR-RES ovarian, in the assay with T-47D breast, with OVCAR-8 ovarian, in the assay on SR leukemia and in the assay with 786-0 renal was above 100 µM throughout. For the same compound, the TGI in the assay on PC-3 prostate, with TK-10 renal and in the assay on SF-539 CNS was above 100 µM throughout.

Take `CCCCCCCCCCCCCCCCOCC(Cl)COP(=O)(O)OP(=O)(O)OCC1OC(n2cnc3c(N)ncnc32)C(O)C1O` (stereo not given): the TGI in the assay on HT29 colon, in the assay with RXF 393 renal, in the assay with NCI/ADR-RES ovarian, in the assay on T-47D breast, in the assay on OVCAR-8 ovarian and in the assay with 786-0 renal was above 100 µM throughout. For the same compound, the values for the TGI with PC-3 prostate, in the assay on TK-10 renal and with SF-539 CNS were 96.8 µM, above 100 µM and above 100 µM, respectively.

Turning to `COc1ccc(/C=C2\CCC(CNc3ccc(Br)cc3)C2=O)cc1` (stereo not given), the TGI in the assay on HT29 colon was above 100 µM; in the assay on RXF 393 renal, above 100 µM; with NCI/ADR-RES ovarian, above 100 µM; in the assay with T-47D breast, above 100 µM; with OVCAR-8 ovarian it was above 100 µM; in the assay on SR leukemia, 87.2 µM. For the same compound, the TGI with 786-0 renal, with PC-3 prostate and in the assay on TK-10 renal was above 100 µM in each case.

For the compound `CC(C)C1CC(CO)(CNc2cc(Cl)nc(N)n2)C1` (stereo not given), the TGI is above 100 µM in the assay with HT29 colon; above 100 µM in the assay with RXF 393 renal; above 100 µM in the assay on NCI/ADR-RES ovarian; 87.9 µM with T-47D breast; above 100 µM in the assay with OVCAR-8 ovarian; above 100 µM with SR leukemia. Also, the TGI in the assay on 786-0 renal, in the assay with PC-3 prostate, with TK-10 renal and with SF-539 CNS was above 100 µM in each case.

`CC12CC(c3ccccc3O1)C(C(=O)Nc1cccc(F)c1)C(=O)N2` (stereo not given): the TGI with HT29 colon is above 100 µM; in the assay with NCI/ADR-RES ovarian, 81.9 µM; in the assay on T-47D breast, 89.2 µM; in the assay with OVCAR-8 ovarian, 80.6 µM; with SR leukemia, above 100 µM; with 786-0 renal it was above 100 µM. Moreover, the TGI in the assay with PC-3 prostate and in the assay on SF-539 CNS was above 100 µM throughout.

Consider `COC1=CC(=O)C2=C(C1=O)[C@H]1CC[C@]3(C)[C@@H](OC(C)=O)CC[C@H]3[C@@H]1CC2`, for which the TGI is 48.5 µM with HT29 colon; above 100 µM with RXF 393 renal; above 100 µM in the assay on NCI/ADR-RES ovarian; 49.4 µM in the assay with T-47D breast; 53.9 µM in the assay with OVCAR-8 ovarian; above 100 µM in the assay with SR leukemia. Further, the TGI in the assay with 786-0 renal, in the assay on PC-3 prostate, with TK-10 renal and with SF-539 CNS was above 100 µM throughout.

The record behind these values is PubChem BioAssay (NCI).
